{
  "source": "patent US20220401439A1",
  "about": "“INTRANASAL PHARMACEUTICAL COMPOSITIONS OF CGRP INHIBITORS” (Biohaven Pharmaceutical Holding Company Ltd., priority 2019, published 2022)",
  "tested_on": "patients receiving acute treatment of migraine",
  "assay": "Phase 2/3 trial BHV3500-201 (Study 201), efficacy in acute treatment of migraine",
  "type": "in vivo, human",
  "key": {"[1]": {"conditions": "5 mg single dose, mITT subjects, Overall"}, "[2]": {"conditions": "5 mg single dose, mITT, Prophylactic migraine medication use: No"}, "[3]": {"conditions": "5 mg single dose, mITT, Prophylactic migraine medication use: Yes"}, "[4]": {"conditions": "10 mg single dose, mITT subjects, Overall"}, "[5]": {"conditions": "10 mg single dose, mITT, Prophylactic migraine medication use: No"}, "[6]": {"conditions": "10 mg single dose, mITT, Prophylactic migraine medication use: Yes"}, "[7]": {"conditions": "10 mg single intranasal dose, p < 0.05"}, "[8]": {"conditions": "20 mg single dose, mITT subjects, Overall"}, "[9]": {"conditions": "20 mg single dose, mITT, Prophylactic migraine medication use: No"}, "[10]": {"conditions": "20 mg single dose, mITT, Prophylactic migraine medication use: Yes"}, "[11]": {"conditions": "20 mg single intranasal dose, p < 0.05"}, "[12]": {"conditions": "zavegepant 5 mg vs placebo, mITT, CMH weighting"}, "[13]": {"conditions": "zavegepant 5 mg vs placebo, subjects with functional disability at onset, CMH weighting"}, "[14]": {"conditions": "zavegepant 5 mg vs placebo, subjects with symptom present at onset, CMH weighting"}, "[15]": {"conditions": "zavegepant 5 mg, mITT subjects with functional disability at on-study migraine attack onset"}},
  "note": "Marks after values point to notes of the source that are not given here.",
  "data": [
    {"compound": "Cc1cc(C[C@@H](NC(=O)N2CCC(c3cc4ccccc4[nH]c3=O)CC2)C(=O)N2CCN(C3CCN(C)CC3)CC2)cc2cn[nH]c12", "note": "[Zavegepant, (R)—N-(3-(7-methyl-1H-indazol-5-yl)-1-(4-(1-methylpiperidin-4-yl)piperazin-1-yl)-1-oxopropan-2-yl)-4-(2-oxo-1,2-dihydroquinolin-3-yl)piperidine-1-carboxamide]", "values": [
      {"measurement": "Pain Relief at 15 Minutes Post-Dose, (%) of subjects", "setting": "[1]", "result": "(14.2) %"},
      {"measurement": "Pain Relief at 15 Minutes Post-Dose, n/N", "setting": "[1]", "result": "55/387"},
      {"measurement": "Pain Relief at 15 Minutes Post-Dose, Stratified percentage difference (BHV-3500-Placebo)", "setting": "5 mg single dose, mITT subjects, Overall, CMH weighting", "result": 4.2, "unit": "%"},
      {"measurement": "Pain Relief at 15 Minutes Post-Dose, (%) of subjects", "setting": "[2]", "result": "(14.7) %"},
      {"measurement": "Pain Relief at 15 Minutes Post-Dose, Percentage difference (BHV-3500-Placebo)", "setting": "[2]", "result": 4.6, "unit": "%"},
      {"measurement": "Pain Relief at 15 Minutes Post-Dose, n/N", "setting": "[2]", "result": "49/333"},
      {"measurement": "Pain Relief at 15 Minutes Post-Dose, (%) of subjects", "setting": "[3]", "result": "(11.1) %"},
      {"measurement": "Pain Relief at 15 Minutes Post-Dose, Percentage difference (BHV-3500-Placebo)", "setting": "[3]", "result": 1.9, "unit": "%"},
      {"measurement": "Pain Relief at 15 Minutes Post-Dose, n/N", "setting": "[3]", "result": "8/54"},
      {"measurement": "2 Hour Endpoint Freedom from MBS (Most Bothersome Symptom)", "setting": "5 mg single intranasal dose", "result": 39.0, "unit": "%"},
      {"measurement": "2 Hour Endpoint Pain Freedom", "setting": "5 mg single intranasal dose", "result": 19.6, "unit": "%"},
      {"measurement": "Pain Relief at 15 Minutes Post-Dose, (%) of subjects", "setting": "[4]", "result": "(18.2) %"},
      {"measurement": "Pain Relief at 15 Minutes Post-Dose, n/N", "setting": "[4]", "result": "71/331"},
      {"measurement": "Pain Relief at 15 Minutes Post-Dose, Stratified percentage difference (BHV-3500-Placebo)", "setting": "10 mg single dose, mITT subjects, Overall, CMH weighting", "result": 8.2, "unit": "%"},
      {"measurement": "Pain Relief at 15 Minutes Post-Dose, (%) of subjects", "setting": "[5]", "result": "(17.3) %"},
      {"measurement": "Pain Relief at 15 Minutes Post-Dose, Percentage difference (BHV-3500-Placebo)", "setting": "[5]", "result": 7.2, "unit": "%"},
      {"measurement": "Pain Relief at 15 Minutes Post-Dose, n/N", "setting": "[5]", "result": "59/341"},
      {"measurement": "Pain Relief at 15 Minutes Post-Dose, (%) of subjects", "setting": "[6]", "result": "(24.0) %"},
      {"measurement": "Pain Relief at 15 Minutes Post-Dose, Percentage difference (BHV-3500-Placebo)", "setting": "[6]", "result": 14.7, "unit": "%"},
      {"measurement": "Pain Relief at 15 Minutes Post-Dose, n/N", "setting": "[6]", "result": "12/50"},
      {"measurement": "2 Hour Endpoint Freedom from MBS (Most Bothersome Symptom)", "setting": "[7]", "result": 41.9, "unit": "%*"},
      {"measurement": "2 Hour Endpoint Pain Freedom", "setting": "[7]", "result": 22.5, "unit": "%*"},
      {"measurement": "return to normal function", "setting": "20 mg", "result": "as early as 30 minutes"},
      {"measurement": "Pain Relief at 15 Minutes Post-Dose, (%) of subjects", "setting": "[8]", "result": "(14.7) %"},
      {"measurement": "Pain Relief at 15 Minutes Post-Dose, n/N", "setting": "[8]", "result": "59/402"},
      {"measurement": "Pain Relief at 15 Minutes Post-Dose, Stratified percentage difference (BHV-3500-Placebo)", "setting": "20 mg single dose, mITT subjects, Overall, CMH weighting", "result": 4.7, "unit": "%"},
      {"measurement": "Pain Relief at 15 Minutes Post-Dose, (%) of subjects", "setting": "[9]", "result": "(13.3) %"},
      {"measurement": "Pain Relief at 15 Minutes Post-Dose, Percentage difference (BHV-3500-Placebo)", "setting": "[9]", "result": 3.2, "unit": "%"},
      {"measurement": "Pain Relief at 15 Minutes Post-Dose, n/N", "setting": "[9]", "result": "46/345"},
      {"measurement": "Pain Relief at 15 Minutes Post-Dose, (%) of subjects", "setting": "[10]", "result": "(22.3) %"},
      {"measurement": "Pain Relief at 15 Minutes Post-Dose, Percentage difference (BHV-3500-Placebo)", "setting": "[10]", "result": 13.5, "unit": "%"},
      {"measurement": "Pain Relief at 15 Minutes Post-Dose, n/N", "setting": "[10]", "result": "13/57"},
      {"measurement": "2 Hour Endpoint Freedom from MBS (Most Bothersome Symptom)", "setting": "[11]", "result": 42.5, "unit": "%*"},
      {"measurement": "2 Hour Endpoint Pain Freedom", "setting": "[11]", "result": 23.1, "unit": "%*"},
      {"measurement": "onset of pain relief", "setting": "5, 10, and 20 mg single dose, stratified CMH tests, mITT subjects", "result": "pain relief as early as 15 minutes post-dose"},
      {"measurement": "durability of benefits (sustained pain freedom and pain relief 2 to 24 and 2 to 48 hours)", "setting": "5, 10 and 20 mg (pain relief 2 to 48: 5 and 10 mg), nominal p<0.05", "result": "durable and sustained without rescue medication out to 48 hours"},
      {"measurement": "pain relief and return to normal function at 2 hours", "setting": "10 and 20 mg doses", "result": "therapeutic benefits"},
      {"measurement": "comparison to placebo on co-primary endpoints of pain freedom and freedom from MBS at 2 hours", "setting": "10 and 20 mg, single dose, p<0.05", "result": "statistically superior"},
      {"measurement": "comparison to placebo on multiple secondary endpoints demonstrating early activity", "setting": "nominal p<0.05", "result": "superior to placebo"},
      {"measurement": "Pain relief at 2 hours postdose, n/N (%)", "setting": "zavegepant 5 mg intranasal single dose, mITT subjects", "result": "(57.9) %"},
      {"measurement": "Pain relief at 30 minutes postdose, Stratified Percentage Difference (Zavegepant-Placebo)", "setting": "[12]", "result": 1.9, "unit": "%"},
      {"measurement": "Pain relief at 60 minutes postdose, Stratified Percentage Difference (Zavegepant-Placebo)", "setting": "[12]", "result": 5.1, "unit": "%"},
      {"measurement": "Rescue medication use within 24 hours postdose, Stratified Percentage Difference (Zavegepant-Placebo)", "setting": "[12]", "result": "−2.4", "unit": "%"},
      {"measurement": "Sustained pain freedom from 2 to 24 hours postdose, Stratified Percentage Difference (Zavegepant-Placebo)", "setting": "[12]", "result": 5.3, "unit": "%"},
      {"measurement": "Sustained pain freedom from 2 to 48 hours postdose, Stratified Percentage Difference (Zavegepant-Placebo)", "setting": "[12]", "result": 5.5, "unit": "%"},
      {"measurement": "Sustained pain relief from 2 to 24 hours postdose, Stratified Percentage Difference (Zavegepant-Placebo)", "setting": "[12]", "result": 8.0, "unit": "%"},
      {"measurement": "Sustained pain relief from 2 to 48 hours postdose, Stratified Percentage Difference (Zavegepant-Placebo)", "setting": "[12]", "result": 7.4, "unit": "%"},
      {"measurement": "Pain relief at 2 hours postdose, Stratified Percentage Difference (Zavegepant-Placebo)", "setting": "zavegepant 5 mg vs placebo, mITT, stratified by prophylactic migraine medication use, CMH weighting", "result": 4.2, "unit": "%"},
      {"measurement": "Return to normal function at 30 minutes postdose, Stratified Percentage Difference (Zavegepant-Placebo)", "setting": "[13]", "result": 3.4, "unit": "%"},
      {"measurement": "Return to normal function at 60 minutes postdose, Stratified Percentage Difference (Zavegepant-Placebo)", "setting": "[13]", "result": 5.5, "unit": "%"},
      {"measurement": "Return to normal function at 2 hours postdose, Stratified Percentage Difference (Zavegepant-Placebo)", "setting": "[13]", "result": 4.3, "unit": "%"},
      {"measurement": "Pain relapse from 2 to 48 hours postdose, Stratified Percentage Difference (Zavegepant-Placebo)", "setting": "zavegepant 5 mg vs placebo, subjects with pain freedom at 2 hours postdose, CMH weighting", "result": "−18.9", "unit": "%"},
      {"measurement": "Nausea freedom at 2 hours postdose, Stratified Percentage Difference (Zavegepant-Placebo)", "setting": "[14]", "result": 1.8, "unit": "%"},
      {"measurement": "Phonophobia freedom at 2 hours postdose, Stratified Percentage Difference (Zavegepant-Placebo)", "setting": "[14]", "result": 10.1, "unit": "%"},
      {"measurement": "Photophobia freedom at 2 hours postdose, Stratified Percentage Difference (Zavegepant-Placebo)", "setting": "[14]", "result": 4.6, "unit": "%"},
      {"measurement": "Pain relief at 30 minutes postdose, n/N (%)", "setting": "zavegepant 5 mg, mITT subjects", "result": "(26.6) %"},
      {"measurement": "Pain relief at 60 minutes postdose, n/N (%)", "setting": "zavegepant 5 mg, mITT subjects", "result": "(47.0) %"},
      {"measurement": "Rescue medication use within 24 hours postdose, n/N (%)", "setting": "zavegepant 5 mg, mITT subjects", "result": "(24.9) %"},
      {"measurement": "Sustained pain freedom from 2 to 24 hours postdose, n/N (%)", "setting": "zavegepant 5 mg, mITT subjects", "result": "(14.2) %"},
      {"measurement": "Sustained pain freedom from 2 to 48 hours postdose, n/N (%)", "setting": "zavegepant 5 mg, mITT subjects", "result": "(12.9) %"},
      {"measurement": "Sustained pain relief from 2 to 24 hours postdose, n/N (%)", "setting": "zavegepant 5 mg, mITT subjects", "result": "(43.7) %"},
      {"measurement": "Sustained pain relief from 2 to 48 hours postdose, n/N (%)", "setting": "zavegepant 5 mg, mITT subjects", "result": "(40.1) %"},
      {"measurement": "Return to normal function at 30 minutes postdose, n/N (%)", "setting": "[15]", "result": "(8.8) %"},
      {"measurement": "Return to normal function at 60 minutes postdose, n/N (%)", "setting": "[15]", "result": "(22.6) %"}
    ]}
  ]
}
